Measured values taken from PubChem BioAssay (NCI).
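Results reflect a 48-hour exposure of cells in 96-well plates to compound at five concentrations. TGI is the concentration that stops growth completely.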

Experiments:
Experiment in all cases: NCI tumour cell line growth inhibition, 48 h
NCI-H226 lung = test system: NCI-H226 lung
KM12 colon = test system: KM12 colon
UO-31 renal = test system: UO-31 renal
SK-MEL-28 melanoma = test system: SK-MEL-28 melanoma
RPMI-8226 leukemia = test system: RPMI-8226 leukemia
786-0 renal = test system: 786-0 renal
HCT-116 colon = test system: HCT-116 colon
SW-620 colon = test system: SW-620 colon
HOP-92 NSCLC = test system: HOP-92 NSCLC
HOP-62 NSCLC = test system: HOP-62 NSCLC
OVCAR-3 ovarian = test system: OVCAR-3 ovarian
IGROV1 ovarian = test system: IGROV1 ovarian
HCC-2998 colon = test system: HCC-2998 colon
SNB-19 CNS = test system: SNB-19 CNS
LOX IMVI melanoma = test system: LOX IMVI melanoma
SN12C renal = test system: SN12C renal
A498 renal = test system: A498 renal

Row | SMILES | TGI (NCI-H226 lung) [µM] | TGI (KM12 colon) [µM] | TGI (UO-31 renal) [µM] | TGI (SK-MEL-28 melanoma) [µM] | TGI (RPMI-8226 leukemia) [µM] | TGI (786-0 renal) [µM] | TGI (HCT-116 colon) [µM] | TGI (SW-620 colon) [µM] | TGI (HOP-92 NSCLC) [µM] | TGI (HOP-62 NSCLC) [µM] | TGI (OVCAR-3 ovarian) [µM] | TGI (IGROV1 ovarian) [µM] | TGI (HCC-2998 colon) [µM] | TGI (SNB-19 CNS) [µM] | TGI (LOX IMVI melanoma) [µM] | TGI (SN12C renal) [µM] | TGI (A498 renal) [µM]
1 | Cc1cc(C=O)c2c(=O)c3c(O)ccc(/C=C/C(C)C)c3oc2c1 | > 100 | > 100 | > 100 | > 100 | 58.8 | > 100 | 48.1 | > 100 | > 100 | > 100 | > 100 | > 100 | > 100 | > 100 | – | – | –
2 | Cc1csc(=Nc2ccccc2)n1CCC(O)(P(=O)(O)O)P(=O)(O)O | > 100 | > 100 | > 100 | – | – | > 100 | > 100 | – | – | > 100 | > 100 | > 100 | > 100 | > 100 | > 100 | – | –
3 | N/C(CCSCCSCC/C(N)=N\O)=N\O | > 100 | > 100 | > 100 | > 100 | > 100 | > 100 | > 100 | > 100 | > 100 | > 100 | > 100 | > 100 | > 100 | > 100 | > 100 | > 100 | –
4 | C#CCN(C(=O)C(F)(F)F)C(/C=C\C(=O)OC)(C(=O)OCC)C(=O)OCC | > 100 | > 100 | > 100 | > 100 | > 100 | > 100 | – | > 100 | – | > 100 | > 100 | > 100 | > 100 | > 100 | > 100 | > 100 | > 100
5 | COc1ccc2cc3n(c(=O)c2c1)CCc1c-3cc(OC)c(OC)c1OC | > 100 | – | > 100 | > 100 | > 100 | > 100 | > 100 | > 100 | > 100 | > 100 | > 100 | > 100 | > 100 | > 100 | – | > 100 | –
6 | Cc1ccccc1NC(=O)CC(=O)NNCC(=O)Nc1nnc(-c2ccccc2)s1 | > 100 | > 100 | > 100 | > 100 | 75.1 | > 100 | > 100 | > 100 | – | > 100 | > 100 | > 100 | > 100 | > 100 | > 100 | > 100 | > 100
7 | COc1ccc(OC)c(/C=C2/C(=O)N=C(NC(C)=O)N2C)c1 | > 100 | > 100 | > 100 | > 100 | – | > 100 | > 100 | > 100 | > 100 | > 100 | > 100 | > 100 | > 100 | > 100 | > 100 | > 100 | –
8 | O=C1/C(=C/c2ccc(Br)s2)NC(=S)N1CN1CCCCC1 | > 100 | > 100 | 76.3 | > 100 | 50.8 | > 100 | > 100 | > 100 | – | > 100 | 59.6 | > 100 | > 100 | > 100 | 52 | > 100 | 91.7
9 | CN(C)c1ccc(/C=C2\CCc3ccccc3C2=O)cc1Br | > 100 | > 100 | > 100 | > 100 | 72.9 | > 100 | > 100 | > 100 | > 100 | > 100 | > 100 | – | > 100 | > 100 | > 100 | > 100 | –
10 | COC(=O)[C@@H]1Cc2ccc(OC)c(c2)OCCC(=O)N1 | > 100 | > 100 | > 100 | > 100 | > 100 | > 100 | > 100 | > 100 | – | > 100 | > 100 | > 100 | > 100 | > 100 | – | – | –
11 | NC1=C(c2nc(-c3ccccc3)cs2)C(c2ccco2)c2c(c3ccccc3oc2=O)O1 (centres undefined) | > 100 | – | > 100 | > 100 | – | > 100 | > 100 | > 100 | > 100 | > 100 | > 100 | > 100 | > 100 | > 100 | > 100 | > 100 | > 100
12 | CCCCCCCCCCCCCCCCOP(=O)([O-])OCC[N+](C)(C)C1CC(C)(C)N(O)C(C)(C)C1 | > 100 | > 100 | > 100 | – | – | > 100 | > 100 | > 100 | > 100 | > 100 | > 100 | – | > 100 | > 100 | – | – | > 100
13 | CN(Cc1cccc2ccsc12)/N=C\c1ccc(Cl)cc1 | > 100 | > 100 | > 100 | > 100 | – | > 100 | > 100 | > 100 | > 100 | > 100 | 48.3 | > 100 | > 100 | > 100 | > 100 | > 100 | > 100
14 | Cc1nn(C(=O)Cc2ccccc2)c2c1C(c1ccc(/C=C/c3ccccc3)cc1)SC(N)=N2 (centres undefined) | > 100 | > 100 | > 100 | > 100 | > 100 | > 100 | > 100 | > 100 | – | > 100 | – | > 100 | > 100 | > 100 | > 100 | > 100 | > 100
15 | CC1(c2ccc(Cl)cc2)C=C(c2ccc(Cl)cc2)C(C#N)=C(C(C#N)C#N)N1 (centres undefined) | 98.2 | 38.6 | 30.5 | 66.6 | > 100 | 26.9 | 27.3 | > 100 | – | 31.9 | 21.3 | 25.6 | 31.3 | 37.2 | 32.3 | 33.5 | 33.7
16 | CCCCCCC1OC23OC1CCC2C(O)CCC3O (centres undefined) | > 100 | > 100 | > 100 | > 100 | > 100 | > 100 | > 100 | > 100 | – | > 100 | > 100 | > 100 | > 100 | > 100 | > 100 | > 100 | > 100

Row | SMILES | TGI (NCI-H226 lung) [µM] | TGI (KM12 colon) [µM] | TGI (UO-31 renal) [µM] | TGI (SK-MEL-28 melanoma) [µM] | TGI (RPMI-8226 leukemia) [µM] | TGI (786-0 renal) [µM] | TGI (HCT-116 colon) [µM] | TGI (SW-620 colon) [µM] | TGI (HOP-92 NSCLC) [µM] | TGI (HOP-62 NSCLC) [µM] | TGI (OVCAR-3 ovarian) [µM] | TGI (IGROV1 ovarian) [µM] | TGI (HCC-2998 colon) [µM] | TGI (SNB-19 CNS) [µM] | TGI (LOX IMVI melanoma) [µM] | TGI (SN12C renal) [µM] | TGI (A498 renal) [µM]
17 | Cc1ccc2c(c1C)CC1(Cc3ccc(C)c(C)c3C1=O)C2=O (centres undefined) | > 100 | > 100 | > 100 | > 100 | > 100 | > 100 | > 100 | > 100 | 87 | – | > 100 | > 100 | > 100 | > 100 | > 100 | > 100 | –
18 | CC(=O)Nc1nc2c(=O)c3ccccc3sc2s1 | > 100 | > 100 | > 100 | – | > 100 | > 100 | > 100 | – | – | > 100 | > 100 | > 100 | – | > 100 | – | > 100 | > 100
19 | N#CCC(=O)N/N=C\C(O)C(O)C(O)C(O)CO (centres undefined) | > 100 | > 100 | > 100 | > 100 | > 100 | > 100 | – | > 100 | – | > 100 | > 100 | > 100 | > 100 | > 100 | > 100 | > 100 | > 100
20 | COc1cc(Nc2nc3cc(C)ccc3nc2-c2ccccc2)cc(OC)c1OC | – | > 100 | 77.7 | 55.1 | – | 33.9 | 45.2 | > 100 | > 100 | – | 41.8 | > 100 | 44.2 | > 100 | > 100 | > 100 | > 100
21 | Cc1[nH]c(=O)c2oc3cc4ccccc4cc3c2c1C(=O)O | > 10 | > 10 | > 10 | – | – | > 10 | – | > 10 | > 10 | – | > 10 | > 10 | > 10 | > 10 | > 10 | > 10 | –
22 | COC(=O)C1CC2CC1C1C2SC(F)(F)C1(F)F (centres undefined) | > 100 | > 100 | > 100 | > 100 | > 100 | > 100 | > 100 | > 100 | – | > 100 | > 100 | > 100 | > 100 | > 100 | > 100 | > 100 | > 100
23 | O=c1c2sc3ccccc3sc=2c(=O)c2c(Cl)c(Cl)c(Cl)c(Cl)c12 | > 100 | > 100 | > 100 | > 100 | > 100 | > 100 | > 100 | > 100 | – | > 100 | > 100 | > 100 | > 100 | > 100 | – | > 100 | > 100
24 | CCOC(=O)C1C(NC(N)=O)N(Cc2ccccc2)C(=O)N1Cc1ccccc1 (centres undefined) | – | > 100 | > 100 | > 100 | > 100 | > 100 | > 100 | > 100 | > 100 | > 100 | > 100 | > 100 | > 100 | > 100 | > 100 | – | –
25 | C/C=C1/C=CC2c3[nH]c4ccccc4c3CCN2C1 (centres undefined) | > 400 | > 400 | – | > 400 | > 400 | > 400 | > 400 | > 400 | > 400 | > 400 | > 400 | > 400 | > 400 | > 400 | > 400 | > 400 | –
26 | Cc1cc2nnn(C3CCCCO3)c2cc1C (centres undefined) | > 100 | > 100 | > 100 | – | – | > 100 | > 100 | – | – | > 100 | > 100 | > 100 | > 100 | > 100 | – | > 100 | –
27 | COC(=O)C1=C(OC)C(=P2(c3ccccc3)CC(c3ccccc3)=C2c2ccccc2)C(C(=O)OC)=C1C(=O)OC (centres undefined) | > 100 | > 100 | > 100 | > 100 | > 31.2 | > 100 | > 100 | > 100 | – | > 100 | > 100 | > 100 | > 100 | > 100 | > 100 | > 100 | –
28 | CC(=O)n1c2ccc(Br)cc2c2nc3ccccc3nc21 | > 100 | > 100 | > 100 | > 100 | > 100 | > 100 | > 100 | > 100 | > 100 | > 100 | > 100 | > 100 | > 100 | > 100 | > 100 | > 100 | –
29 | C=C1CC[C@@H]2[C@](C)(COC(=O)CCC(=O)OC)CCC[C@@]2(C)[C@@H]1CCC1=CC(=O)OC1 | > 100 | > 100 | > 100 | > 100 | 34.2 | > 100 | > 100 | > 100 | – | > 100 | > 100 | > 100 | – | > 100 | > 100 | > 100 | > 100
30 | Nc1nccc(NCC2(CO)CC(CCc3ccccc3)C2)n1 (centres undefined) | 51.7 | 41.7 | 32.3 | 36.5 | 51 | 27.8 | 23 | 43.7 | – | 38 | 38.9 | 33.3 | 35.9 | – | 34.4 | 60.2 | 29.3
31 | O=C(c1c(F)c(F)c(F)c(F)c1F)n1c(=S)n(C(=O)c2c(F)c(F)c(F)c(F)c2F)c2ccccc21 | – | > 100 | > 100 | > 100 | > 100 | > 100 | > 100 | > 100 | > 100 | > 100 | – | > 100 | > 100 | > 100 | > 100 | > 100 | –
